pIC50: −log10 of the molar value. Where a name gives a salt, the structure may show the parent alone.
Key:
myeloperoxidase [1] = molecular target: T1, myeloperoxidase (Homo sapiens, UniProt P05164); experiment: MPO Chlorination Assay (APF Assay); assay type: biochemical; conditions: potency range class, read-out: APF Assay IC50 value
T1 sequence (P05164 49-745): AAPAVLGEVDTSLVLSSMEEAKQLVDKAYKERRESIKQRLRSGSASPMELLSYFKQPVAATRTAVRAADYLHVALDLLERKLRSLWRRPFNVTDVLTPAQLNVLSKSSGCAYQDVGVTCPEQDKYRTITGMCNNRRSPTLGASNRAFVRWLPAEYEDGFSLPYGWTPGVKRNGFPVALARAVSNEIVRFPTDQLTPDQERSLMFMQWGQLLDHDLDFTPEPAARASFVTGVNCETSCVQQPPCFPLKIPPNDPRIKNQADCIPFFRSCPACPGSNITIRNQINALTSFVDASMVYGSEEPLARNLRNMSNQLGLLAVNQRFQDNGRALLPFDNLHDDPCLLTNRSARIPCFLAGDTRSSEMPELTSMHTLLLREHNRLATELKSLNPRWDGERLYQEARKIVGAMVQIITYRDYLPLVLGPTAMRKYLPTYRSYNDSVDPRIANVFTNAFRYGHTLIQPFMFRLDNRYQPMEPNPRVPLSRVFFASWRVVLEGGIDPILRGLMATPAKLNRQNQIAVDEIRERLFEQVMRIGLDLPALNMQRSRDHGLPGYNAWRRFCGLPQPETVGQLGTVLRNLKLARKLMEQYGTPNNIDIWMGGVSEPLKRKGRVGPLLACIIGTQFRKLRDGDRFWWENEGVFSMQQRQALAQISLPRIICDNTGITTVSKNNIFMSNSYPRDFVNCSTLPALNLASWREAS

myeloperoxidase [2] = molecular target: T1, myeloperoxidase; experiment: MPO Peroxidation Assay (Amplex Red Assay); assay type: biochemical; conditions: potency range class; for pIC50: read-out: Amplex Red Assay IC50 value

SMILES | pIC50 (myeloperoxidase [1]) | pIC50 (myeloperoxidase [2]) | IC50 (myeloperoxidase [2]; Amplex Red Assay IC50 value (μM)) [µM]
CC1(NCCC(c2ccccc2)c2cc(N)nc3[nH]nnc23)CCC(c2ccccc2)CC1 (mixture of isomers) [Example 143, 7-{3-[(1-methyl-4-phenylcyclohexyl)amino]-1-phenylpropyl}-3H-[1,2,3]triazolo[4,5-b]pyridin-5-amine] | 6.00 to 7.00 | 6.00 to 7.00 | 
CC(c1ccccc1)c1cc(N)nc2[nH]nnc12 (racemic) [Example 1, 7-(1-phenylethyl)-3H-[1,2,3]triazolo[4,5-b]pyridin-5-amine] |  | 7.00 to 9.00 | 
CC(c1cccc(F)c1)c1cc(N)nc2[nH]nnc12 (racemic) [Example 30, 7-(1-(3-fluorophenyl)ethyl)-3H-[1,2,3]triazolo[4,5-b]pyridin-5-amine] | 6.00 to 7.00 | 7.00 to 9.00 | 
Nc1cc(C(Cc2ccccc2F)c2ccccc2)c2nn[nH]c2n1 (single isomer, unassigned) [Example 9, 7-(2-(2-fluorophenyl)-1-phenylethyl)-3H-[1,2,3]triazolo[4,5-b]pyridin-5-amine] | 6.00 to 7.00 | 6.00 to 7.00 | 
Nc1cc(C(Cc2ccccc2)c2ccccc2F)c2nn[nH]c2n1 (single isomer, unassigned) [Example 10, 7-(1-(2-fluorophenyl)-2-phenylethyl)-3H-[1,2,3]triazolo[4,5-b]pyridin-5-amine] | 7.00 to 9.00 | 7.00 to 9.00 | 
CC(NCCC(c1ccccc1)c1cc(N)nc2[nH]nnc12)c1ccccc1 (single isomer, unassigned) [Example 13, 7-(1-phenyl-3-((1-phenylethyl)amino)propyl)-3H-[1,2,3]triazolo[4,5-b]pyridin-5-amine] |  | 6.00 to 7.00 | 
Nc1cc(C(CCNC2CC(c3ccccc3)C2)c2ccccc2)c2nn[nH]c2n1 (single isomer, unassigned) [Example 81, 7-{1-phenyl-3-[(3-phenylcyclobutyl)amino]propyl}-3H-[1,2,3]triazolo[4,5-b] pyridin-5-amine] | 7.00 to 9.00 | 5.00 to 6.00 | 
Nc1cc(C(CCOC2CCc3ccccc32)c2ccccc2)c2nn[nH]c2n1 (single isomer, unassigned) [Example 231, 7-(3-((2,3-dihydro-1H-inden-1-yl)oxy)-1-phenylpropyl)-3H-[1,2,3]triazolo[4,5-b]pyridin-5-amine] | 6.00 to 7.00 | 6.00 to 7.00 | 
CCCC(c1ccccc1)c1cc(N)nc2[nH]nnc12 (stereo not drawn) [Example 3, 7-(1-phenylbutyl)-3H-[1,2,3]triazolo [4,5-b]pyridin-5-amine] |  | 7.00 to 9.00 | 
Nc1cc(C(CCC2CCCCC2)c2ccccc2)c2nn[nH]c2n1 (stereo not drawn) [Example 6, 7-(3-cyclohexyl-1-phenylpropyl)-3H-[1,2,3]triazolo[4,5-b]pyridin-5-amine] |  | 6.00 to 7.00 | 
Nc1cc(C(CCNS(=O)(=O)c2ccccc2)c2ccccc2)c2nn[nH]c2n1 (stereo not drawn) [Example 15, N-(3-(5-amino-3H-[1,2,3]triazolo[4,5-b]pyridin-7-yl)-3-phenylpropyl)benzenesulfonamide, TFA] | 6.00 to 7.00 | 7.00 to 9.00 | 
Nc1cc(C(CCNC2CCCCC2)c2ccccc2)c2nn[nH]c2n1 (stereo not drawn) [Example 19, 7-[3-(cyclohexylamino)-1-phenylpropyl]-3H-[1,2,3]triazolo[4,5-b] pyridin-5-amine] |  | 6.00 to 7.00 | 
Nc1cc(C(Cc2ccc(Cl)cc2)c2ccccc2)c2nn[nH]c2n1 (stereo not drawn) [Example 33, 7-[2-(4-chlorophenyl)-1-phenylethyl]-3H-[1,2,3]triazolo [4,5-b]pyridin-5-amine] |  | 6.00 to 7.00 | 
COc1cccc(C(Cc2ccccc2)c2cc(N)nc3[nH]nnc23)c1 (stereo not drawn) [Example 34, 7-(1-(3-methoxyphenyl)-2-phenylethyl)-3H-[1,2,3]triazolo[4,5-b]pyridin-5-amine] |  |  | 0.101 to 0.999
Nc1cc(C(Cc2ccccc2)c2cccc(Cl)c2)c2nn[nH]c2n1 (stereo not drawn) [Example 35, 7-[1-(3-chlorophenyl)-2-phenylethyl]-3H-[1,2,3]triazolo [4,5-b]pyridin-5-amine] |  | 6.00 to 7.00 | 
Nc1cc(C(CCNC2CCC(c3ccc(Cl)c(Cl)c3)c3ccccc32)c2ccccc2)c2nn[nH]c2n1 (stereo not drawn) [Example 122, 7-(3-{[4-(3,4-dichlorophenyl)-1,2,3,4-tetrahydronaphthalen-1-yl]amino}-1-phenylpropyl)-3H-[1,2,3]triazolo[4,5-b]pyridin-5-amine] |  | 7.00 to 9.00 | 
CC1CC(NCCC(c2ccccc2)c2cc(N)nc3[nH]nnc23)CCN1c1ccccc1 (stereo not drawn) [Example 131, N-(3-{5-amino-3H-[1,2,3]triazolo[4,5-b]pyridin-7-yl}-3-phenylpropyl)-2-methyl-1-phenylpiperidin-4-amine] | 7.00 to 9.00 |  | 
Nc1cc([C@H](CCNC23CCC(c4ccccc4)(CC2)C(O)C3)c2ccccc2)c2nn[nH]c2n1 (stereo partly drawn) [Example 181, 4-{[(3R)-3-{5-amino-3H-[1,2,3]triazolo [4,5-b]pyridin-7-yl}-3-phenylpropyl]amino}-1-phenylbicyclo[2.2.2] octan-2-ol] |  | 7.00 to 9.00 | 

The next lines start with results.

pIC50 (myeloperoxidase [1]) | pIC50 (myeloperoxidase [2]) | SMILES | IC50 (myeloperoxidase [2]; Amplex Red Assay IC50 value (μM)) [µM]
6.00 to 7.00 | 6.00 to 7.00 | CC(NCCC(c1ccccc1)c1cc(N)nc2[nH]nnc12)c1ccccc1 (single isomer, unassigned) [Example 12, 7-(1-phenyl-3-((1-phenylethyl)amino)propyl)-3H-[1,2,3]triazolo[4,5-b]pyridin-5-amine] | 
7.00 to 9.00 | 6.00 to 7.00 | Nc1cc(C(CCNC2CC(c3ccccc3)C2)c2ccccc2)c2nn[nH]c2n1 (single isomer, unassigned) [Example 80, 7-{1-phenyl-3-[(3-phenylcyclobutyl)amino]propyl}-3H-[1,2,3]triazolo[4,5-b] pyridin-5-amine] | 
 | 6.00 to 7.00 | Nc1cc(C(CCOC2CCc3ccccc32)c2ccccc2)c2nn[nH]c2n1 (single isomer, unassigned) [Example 232, 7-(3-((2,3-dihydro-1H-inden-1-yl)oxy)-1-phenylpropyl)-3H-[1,2,3]triazolo[4,5-b]pyridin-5-amine] | 
7.00 to 9.00 | 6.00 to 7.00 | CN(CC[C@H](c1ccccc1)c1cc(N)nc2[nH]nnc12)[C@H]1CC[C@H](c2ccccc2)CC1 (stereo in doubt) [Example 178, 7-(3-(methyl(4-phenylcyclohexyl)amino)-1-phenylpropyl)-3H-[1,2,3]triazolo[4,5-b]pyridin-5-amine] | 
 | 6.00 to 7.00 | CC(C)CC(c1ccccc1)c1cc(N)nc2[nH]nnc12 (stereo not drawn) [Example 4, 7-(3-methyl-1-phenylbutyl)-3H-[1,2,3]triazolo[4,5-b]pyridin-5-amine] | 
 | 6.00 to 7.00 | CCC(c1ccccc1)c1cc(N)nc2[nH]nnc12 (stereo not drawn) [Example 5, 7-(1-phenylpropyl)-3H-[1,2,3]triazolo [4,5-b]pyridin-5-amine] | 
6.00 to 7.00 | 6.00 to 7.00 | CC(C)(NCCC(c1ccccc1)c1cc(N)nc2[nH]nnc12)c1ccccc1 (stereo not drawn) [Example 14, 7-{1-phenyl-3-[(2-phenylpropan-2-yl)amino]propyl}-3H-[1,2,3]triazolo[4,5-b]pyridin-5-amine] | 
7.00 to 9.00 | 6.00 to 7.00 | Nc1cc(C(CCNCc2ccc3ccccc3c2)c2ccccc2)c2nn[nH]c2n1 (stereo not drawn) [Example 16, 7-(3-{[(naphthalen-2-yl)methyl]amino}-1-phenylpropyl)-3H-[1,2,3]triazolo[4,5-b] pyridin-5-amine] | 
 | 6.00 to 7.00 | Nc1cc(C(Cc2ccccc2Cl)c2ccccc2)c2nn[nH]c2n1 (stereo not drawn) [Example 31, 7-[2-(2-chlorophenyl)-1-phenylethyl]-3H-[1,2,3]triazolo [4,5-b]pyridin-5-amine] | 
 | 6.00 to 7.00 | Nc1cc(C(Cc2cccc(Cl)c2)c2ccccc2)c2nn[nH]c2n1 (stereo not drawn) [Example 32, 7-[2-(3-chlorophenyl)-1-phenylethyl]-3H-[1,2,3]triazolo [4,5-b]pyridin-5-amine] | 
 | 6.00 to 7.00 | Cc1cccc(C(Cc2ccccc2)c2cc(N)nc3[nH]nnc23)c1 (stereo not drawn) [Example 36, 7-[1-(3-methylphenyl)-2-phenylethyl]-3H-[1,2,3]triazolo [4,5-b]pyridin-5-amine] | 
7.00 to 9.00 |  | COC(=O)c1cccc(C(CCN[C@H]2CC[C@H](c3ccccc3)CC2)c2cc(N)nc3[nH]nnc23)c1 (stereo partly drawn) [Example 163, methyl 3-(1-{5-amino-3H-[1,2,3]triazolo [4,5-b]pyridin-7-yl}-3-{[(trans)-4-phenylcyclohexyl]amino}propyl) benzoate] | 
 | 6.00 to 7.00 | Nc1cc(C(CCO)c2ccccc2)c2nn[nH]c2n1 (stereo not drawn) [Example 174, 3-{5-amino-3H-[1,2,3]triazolo [4,5-b]pyridin-7-yl}-3-phenylpropan-1-ol] | 
7.00 to 9.00 |  | NC(=O)CN(CC[C@H](c1ccccc1)c1cc(N)nc2[nH]nnc12)[C@H]1CC[C@H](c2ccccc2)CC1 [Example 189, 2-{[(3R)-3-{5-amino-3H-[1,2,3]triazolo [4,5-b]pyridin-7-yl}-3-phenylpropyl] [(trans)-4-phenylcyclohexyl]amino}acetamide] | 
 | 7.00 to 9.00 | Nc1cc(C(Cc2ccc(CO)cc2)c2ccccc2)c2nn[nH]c2n1 (stereo not drawn) [Example 224, (4-(2-(5-amino-3H-[1,2,3]triazolo[4,5-b]pyridin-7-yl)-2-phenylethyl)phenyl)methanol] | 
